Assay [1] has as its system Staphylococcus aureus. Nature of the assay: Antibacterial activity against Staphylococcus aureus ATCC 25923 after 24 hrs by micro broth dilution assay. To be noted: ATCC 25923, 24 h. It counts as functional. (Dilution methods test growth across graded concentrations, often in twofold steps.)
The test system of assay [2] is Staphylococcus aureus. Nature of the assay: Antibacterial activity against methicillin-resistant Staphylococcus aureus N315 after 24 hrs by micro broth dilution assay. The class given is functional. To be noted: N315, 24 h.
The subject of a further assay is Bacillus subtilis. Nature of the assay: Antibacterial activity against Bacillus subtilis after 24 hrs by micro broth dilution assay. It counts as functional.
A further assay concerns Micrococcus luteus. Nature of the assay: Antibacterial activity against Micrococcus luteus ATCC4698 after 24 hrs by micro broth dilution assay. To be noted: ATCC4698, 24 h. It counts as functional.
Another assay deals with Bacillus. The assay is described as follows: Antibacterial activity against Bacillus proteus ATCC 13315 after 24 hrs by micro broth dilution assay. The class given is functional. As to conditions: ATCC 13315, 24 h.
For assay [3], the system named is Escherichia coli. Nature of the assay: Antibacterial activity against Escherichia coli DH52 after 24 hrs by micro broth dilution assay. It counts as functional. To be noted: DH52, 24 h.
Another assay relates to Pseudomonas aeruginosa. Nature of the assay: Antibacterial activity against Pseudomonas aeruginosa after 24 hrs by micro broth dilution assay. The class given is functional.
Another assay deals with Salmonella typhi. The assay is described as follows: Antibacterial activity against Bacillus typhi after 24 hrs by micro broth dilution assay. As to conditions: Salmonella enterica. The class given is functional, Salmonella enterica subsp. enterica serovar Typhi.
Assay [4] concerns Escherichia coli. The assay is described as follows: Antibacterial activity against Escherichia coli JM109 after 24 hrs by micro broth dilution assay. The class given is functional. To be noted: JM109, 24 h.
For another assay, the system named is Shigella dysenteriae. The assay is described as follows: Antibacterial activity against Shigella dysenteriae after 24 hrs by micro broth dilution assay. The class given is functional.
For the next assay, the system named is Candida albicans. Nature of the assay: Antifungal against Candida albicans ATCC 76615 after 24 hrs by two fold serial dilution method. The class given is functional. To be noted: ATCC 76615, 24 h.
The test system of the next assay is Pichia norvegensis. Nature of the assay: Antifungal against Candida mycoderma after 24 hrs by two fold serial dilution method. It counts as functional.
The next assay concerns Cyberlindnera jadinii. The assay is described as follows: Antifungal against Candida utilis after 24 hrs by two fold serial dilution method. The class given is functional. To be noted: Williopsis jadinii.
The next assay deals with Saccharomyces cerevisiae. The assay is described as follows: Antifungal against Saccharomyces cerevisiae after 24 hrs by two fold serial dilution method. The class given is functional.
The test system of the next assay is Aspergillus flavus. The assay is described as follows: Antifungal against Aspergillus flavus after 24 hrs by two fold serial dilution method. It counts as functional.

≈ marks a conversion by molar mass, not a printed value.

As a reminder, the MIC is the lowest concentration found to suppress growth. As for `CCCCCCn1c(-c2cc(-c3ccc(Cl)cc3Cl)nc(N)n2)nc2ccccc21`, the minimum inhibitory concentration (MIC) against Staphylococcus aureus [1] was found to be 512 µg/mL (≈ 1160 µM); in the assay with Staphylococcus aureus [2], 512 µg/mL (≈ 1160 µM); against Bacillus subtilis it was 512 µg/mL (≈ 1160 µM); in the assay with Micrococcus luteus, 512 µg/mL (≈ 1160 µM); in the assay with Bacillus, 512 µg/mL (≈ 1160 µM); against Escherichia coli [3], 64 µg/mL (≈ 145 µM). Also, the MIC was determined as 512 µg/mL (≈ 1160 µM) in the assay with Pseudomonas aeruginosa; 512 µg/mL (≈ 1160 µM) in the assay with Salmonella typhi; 512 µg/mL (≈ 1160 µM) against Escherichia coli [4]; 512 µg/mL (≈ 1160 µM) in the assay on Shigella dysenteriae; 256 µg/mL (≈ 581 µM) in the assay on Candida albicans; 512 µg/mL (≈ 1160 µM) with Pichia norvegensis. Moreover, the MIC against Cyberlindnera jadinii, against Saccharomyces cerevisiae and against Aspergillus flavus was 512 µg/mL (≈ 1160 µM) throughout.

As for `O=C(/C=C/c1ccc(Cl)cc1)c1nc2ccccc2[nH]1`, the MIC came to 128 µg/mL (≈ 453 µM) with Staphylococcus aureus [1]; 512 µg/mL (≈ 1810 µM) against Staphylococcus aureus [2]; 512 µg/mL (≈ 1810 µM) in the assay with Bacillus subtilis; 64 µg/mL (≈ 226 µM) with Micrococcus luteus; 512 µg/mL (≈ 1810 µM) in the assay on Bacillus; 8 µg/mL (≈ 28.3 µM) in the assay with Escherichia coli [3]. Further, the MIC stood at 512 µg/mL (≈ 1810 µM) in the assay with Pseudomonas aeruginosa; 512 µg/mL (≈ 1810 µM) against Salmonella typhi; 256 µg/mL (≈ 905 µM) in the assay with Escherichia coli [4]; 512 µg/mL (≈ 1810 µM) in the assay on Shigella dysenteriae; 512 µg/mL (≈ 1810 µM) in the assay with Candida albicans; 512 µg/mL (≈ 1810 µM) in the assay with Pichia norvegensis. Further, the figures for the MIC with Cyberlindnera jadinii, in the assay with Saccharomyces cerevisiae and in the assay on Aspergillus flavus were 512 µg/mL (≈ 1810 µM), 128 µg/mL (≈ 453 µM) and 32 µg/mL (≈ 113 µM), respectively.

As to `CCCCCCn1c(C(=O)/C=C/c2ccc(C)cc2)nc2ccccc21`, the MIC with Staphylococcus aureus [1] stood at 512 µg/mL (≈ 1480 µM); in the assay on Staphylococcus aureus [2], 16 µg/mL (≈ 46.2 µM); in the assay with Bacillus subtilis it was 512 µg/mL (≈ 1480 µM); against Micrococcus luteus it was 512 µg/mL (≈ 1480 µM); against Bacillus it was 512 µg/mL (≈ 1480 µM); in the assay on Escherichia coli [3], 512 µg/mL (≈ 1480 µM). The MIC against Pseudomonas aeruginosa, in the assay with Salmonella typhi, with Escherichia coli [4], in the assay with Shigella dysenteriae, against Candida albicans and against Pichia norvegensis was 512 µg/mL (≈ 1480 µM) each time. Further, the MIC against Cyberlindnera jadinii, against Saccharomyces cerevisiae and against Aspergillus flavus was 512 µg/mL (≈ 1480 µM) each time.

In the case of `CCCCCCn1c(C(=O)/C=C/c2ccc(F)cc2)nc2ccccc21`, the minimum inhibitory concentration (MIC) was 512 µg/mL (≈ 1460 µM) with Staphylococcus aureus [1]; 512 µg/mL (≈ 1460 µM) against Staphylococcus aureus [2]; 256 µg/mL (≈ 731 µM) in the assay on Bacillus subtilis; 16 µg/mL (≈ 45.7 µM) in the assay on Micrococcus luteus; 64 µg/mL (≈ 183 µM) with Bacillus; 32 µg/mL (≈ 91.3 µM) against Escherichia coli [3]. For the same compound, the MIC in the assay with Pseudomonas aeruginosa is 512 µg/mL (≈ 1460 µM); with Salmonella typhi, 512 µg/mL (≈ 1460 µM); against Escherichia coli [4], 512 µg/mL (≈ 1460 µM); with Shigella dysenteriae, 256 µg/mL (≈ 731 µM); in the assay on Candida albicans, 256 µg/mL (≈ 731 µM); in the assay with Pichia norvegensis, 512 µg/mL (≈ 1460 µM). The MIC in the assay with Cyberlindnera jadinii amounted to 512 µg/mL (≈ 1460 µM); against Saccharomyces cerevisiae it was 512 µg/mL (≈ 1460 µM); against Aspergillus flavus it was 16 µg/mL (≈ 45.7 µM).

With `O=C(/C=C/c1ccc(Cl)cc1Cl)c1nc2ccccc2[nH]1`, the MIC was found to be 128 µg/mL (≈ 404 µM) with Staphylococcus aureus [1]; 256 µg/mL (≈ 807 µM) against Staphylococcus aureus [2]; 64 µg/mL (≈ 202 µM) in the assay with Bacillus subtilis; 512 µg/mL (≈ 1610 µM) with Micrococcus luteus; 512 µg/mL (≈ 1610 µM) against Bacillus; 512 µg/mL (≈ 1610 µM) with Escherichia coli [3]. For the same compound, the MIC came to 512 µg/mL (≈ 1610 µM) with Pseudomonas aeruginosa; 512 µg/mL (≈ 1610 µM) against Salmonella typhi; 128 µg/mL (≈ 404 µM) in the assay on Escherichia coli [4]; 256 µg/mL (≈ 807 µM) in the assay on Shigella dysenteriae; 256 µg/mL (≈ 807 µM) with Candida albicans; 512 µg/mL (≈ 1610 µM) against Pichia norvegensis. Further, the figures for the MIC against Cyberlindnera jadinii, in the assay on Saccharomyces cerevisiae and with Aspergillus flavus were 64 µg/mL (≈ 202 µM), 16 µg/mL (≈ 50.4 µM) and 512 µg/mL (≈ 1610 µM), respectively.

In the case of `CCCCCCCCn1c(C(=O)/C=C/c2ccc(C)cc2)nc2ccccc21`, the MIC in the assay with Staphylococcus aureus [1], against Staphylococcus aureus [2], in the assay on Bacillus subtilis, against Micrococcus luteus, against Bacillus and in the assay on Escherichia coli [3] was 512 µg/mL (≈ 1370 µM) each time. The MIC against Pseudomonas aeruginosa was 512 µg/mL (≈ 1370 µM); in the assay on Salmonella typhi, 512 µg/mL (≈ 1370 µM); in the assay with Escherichia coli [4], 512 µg/mL (≈ 1370 µM); against Shigella dysenteriae it was 512 µg/mL (≈ 1370 µM); against Candida albicans it was 256 µg/mL (≈ 684 µM); in the assay on Pichia norvegensis it was 512 µg/mL (≈ 1370 µM). Besides, the MIC stood at 256 µg/mL (≈ 684 µM) against Cyberlindnera jadinii, 512 µg/mL (≈ 1370 µM) against Saccharomyces cerevisiae and 512 µg/mL (≈ 1370 µM) against Aspergillus flavus.

Turning to `CCCCn1c(C(=O)/C=C/c2ccc(Cl)cc2Cl)nc2ccccc21`, the MIC was 512 µg/mL (≈ 1370 µM) against Staphylococcus aureus [1]; 8 µg/mL (≈ 21.4 µM) in the assay with Staphylococcus aureus [2]; 64 µg/mL (≈ 171 µM) with Bacillus subtilis; 512 µg/mL (≈ 1370 µM) in the assay on Micrococcus luteus; 512 µg/mL (≈ 1370 µM) against Bacillus; 512 µg/mL (≈ 1370 µM) in the assay with Escherichia coli [3]. The MIC with Pseudomonas aeruginosa was 512 µg/mL (≈ 1370 µM); with Salmonella typhi, 512 µg/mL (≈ 1370 µM); with Escherichia coli [4] it was 256 µg/mL (≈ 686 µM); against Shigella dysenteriae it was 16 µg/mL (≈ 42.9 µM); against Candida albicans, 256 µg/mL (≈ 686 µM); with Pichia norvegensis it was 128 µg/mL (≈ 343 µM). Besides, the MIC is 512 µg/mL (≈ 1370 µM) in the assay with Cyberlindnera jadinii, 16 µg/mL (≈ 42.9 µM) against Saccharomyces cerevisiae and 512 µg/mL (≈ 1370 µM) with Aspergillus flavus.

For the origin of these results see ChEMBL document CHEMBL4251572, “Novel aminopyrimidinyl benzimidazoles as potentially antimicrobial agents: Design, synthesis and biological evaluation” (Eur J Med Chem, 2018).
